Data published in patent US20090203577A1 (EXELIXIS, INC., priority 2005, published 2009).
Like-named read-outs stand apart in the source and are kept apart here.

Target: T1, human farnesoid X receptor (Homo sapiens, UniProt Q96RI1)
T1 construct: CMX-farnesoid X receptor (full length human farnesoid X receptor); expressed in transfected cells; host or cells: CV-1 African Green Monkey Kidney cells
T1 sequence (Q96RI1 1-472 isoform Q96RI1-2): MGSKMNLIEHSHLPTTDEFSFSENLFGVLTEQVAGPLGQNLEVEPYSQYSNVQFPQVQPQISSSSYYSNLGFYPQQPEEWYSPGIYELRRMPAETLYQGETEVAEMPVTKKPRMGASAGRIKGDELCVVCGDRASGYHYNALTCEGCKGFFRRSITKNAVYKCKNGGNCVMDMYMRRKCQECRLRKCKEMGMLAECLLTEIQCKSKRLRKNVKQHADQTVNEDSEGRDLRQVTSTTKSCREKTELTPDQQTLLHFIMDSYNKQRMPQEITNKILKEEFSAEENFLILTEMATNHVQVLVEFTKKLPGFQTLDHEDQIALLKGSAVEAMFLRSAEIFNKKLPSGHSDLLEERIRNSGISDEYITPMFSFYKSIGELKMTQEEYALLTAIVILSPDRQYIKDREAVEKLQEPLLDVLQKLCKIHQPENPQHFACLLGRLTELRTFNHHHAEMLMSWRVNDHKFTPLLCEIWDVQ
T1 sequence (P19793 1-462 partner): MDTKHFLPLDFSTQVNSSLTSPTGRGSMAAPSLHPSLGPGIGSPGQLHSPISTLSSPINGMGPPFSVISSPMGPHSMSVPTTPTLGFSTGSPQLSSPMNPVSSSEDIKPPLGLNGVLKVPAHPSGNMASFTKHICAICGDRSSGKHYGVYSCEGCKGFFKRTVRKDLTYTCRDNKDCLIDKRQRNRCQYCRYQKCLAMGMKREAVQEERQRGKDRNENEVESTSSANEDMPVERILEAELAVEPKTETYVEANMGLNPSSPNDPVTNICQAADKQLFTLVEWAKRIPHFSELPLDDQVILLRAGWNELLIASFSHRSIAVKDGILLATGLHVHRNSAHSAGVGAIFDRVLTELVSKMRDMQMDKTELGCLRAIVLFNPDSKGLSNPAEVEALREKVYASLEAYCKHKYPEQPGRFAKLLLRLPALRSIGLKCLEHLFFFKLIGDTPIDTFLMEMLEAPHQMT
Assay: FXR in vitro assays (farnesoid X receptor/ECREx7 co-transfection assay, TR-FRET assay), Table I
Format: cell-based
Conditions: for Emax: read-out: % Efficacy
Description: The basic co-transfection protocol for measuring the farnesoid X receptor activity is as follows. CV-1 African Green Monkey Kidney cells were plated 24 hours before transfection to achieve approximately 70-80 percent confluency. […] The assay was allowed to continue for an additional 18-20 hours, after which the cells were lysed, with lysis buffer (1% triton X 100, 10% glycerol, 5 mM Dithiothreitol, 1 mM EGTA, 25 mM Tricine, pH 7.8) and the luciferase activity measured in the presence of Luciferase assay buffer (0.73 mM ATP, 22.3 mm Tricine, 0.11 mM EGTA, 0.55 mM Luciferin, 0.15 mM Coenzyme A, 0.5 mM HEPES, 10 mM Magnesium sulphatc) on a standard luminometer plate reader (PE Biosystems, NorthStar Reader), using recommended operating instructions and conditions.
The dose response curves are generated from an 8 point curve with concentrations differing by ½ LOG units. Each point represents the average of 4 wells of data from a 384 well plate. A curve for the data is generated by using the equation:
Y=Bottom+(Top−Bottom)/(1+10̂((Log EC50−X)*HillSlope))
The EC50/IC50 is therefore defined as the concentration at which an agonist or antagonist elicits a response that is half way between the Top (maximum) and Bottom (baseline) values. The EC50/IC50 values represented are the averages of at least 3 independent experiments.

[1] = agonist activity, one or more of the in vitro assays, read-out: EC50

SMILES: CC(C)OC(=O)C1=CN(C(=O)c2c(F)cccc2F)CC(C)(C)c2c1[nH]c1ccccc21 [Example 75, 1-methylethyl 3-[(2,6-difluorophenyl)carbonyl]-1,1-dimethyl-1,2,3,6-tetrahydroazepino[4,5-b]indole-5-carboxylate]
- EC50 [1]: 1 to 10 nM
- Emax: > 100%

SMILES: CC(C)OC(=O)C1=CN(C(=O)c2ccc(F)c(F)c2F)CC(C)(C)c2c1[nH]c1ccccc21 [Example 77, 1-methylethyl 1,1-dimethyl-3-[(2,3,4-trifluorophenyl)carbonyl]-1,2,3,6-tetrahydroazepino[4,5-b]indole-5-carboxylate]
- EC50 [1]: 1 to 10 nM
- Emax: > 100%

SMILES: CC(C)OC(=O)C1=CN(C(=O)c2c(F)cc(F)cc2F)CC(C)(C)c2c1[nH]c1ccccc21 [Example 78, 1-methylethyl 1,1-dimethyl-3-[(2,4,6-trifluorophenyl)carbonyl]-1,2,3,6-tetrahydroazepino[4,5-b]indole-5-carboxylate]
- EC50 [1]: 10 to 100 nM
- Emax: > 100%

SMILES: CC(C)OC(=O)C1=CN(C(=O)c2cc(F)c(F)cc2F)CC(C)(C)c2c1[nH]c1ccccc21 [Example 79, 1-methylethyl 1,1-dimethyl-3-[(2,4,5-trifluorophenyl)carbonyl]-1,2,3,6-tetrahydroazepino[4,5-b]indole-5-carboxylate]
- EC50 [1]: 1 to 10 nM
- Emax: > 100%

SMILES: CC(C)OC(=O)C1=CN(C(=O)c2ccc(C(F)(F)F)c(F)c2)CC(C)(C)c2c1[nH]c1ccccc21 [Example 84, 1-methylethyl 3-{[3-fluoro-4-(trifluoromethyl)phenyl]car-bonyl}-1,1-dimethyl-1,2,3,6-tetrahydroazepino[4,5-b]indole-5-carboxylate]
- EC50 [1]: 10 to 100 nM
- Emax: > 100%

SMILES: Cc1ccc(C(=O)N2C=C(C(=O)OC(C)C)c3[nH]c4ccccc4c3C(C)(C)C2)cc1 [Example 87, 1-methylethyl 1,1-dimethyl-3-[(4-methylphenyl)carbonyl]-1,2,3,6-tetrahydroazepino[4,5-b]indole-5-carboxylate]
- EC50 [1]: 10 to 100 nM
- Emax: > 100%

SMILES: COc1cccc(C(=O)N2C=C(C(=O)OC(C)C)c3[nH]c4ccccc4c3C(C)(C)C2)c1 [Example 88, 1-methylethyl 1,1-dimethyl-3-{[3-(methyloxy)phenyl]carbonyl}-1,2,3,6-tetrahydroazepino[4,5-b]indole-5-carboxylate]
- EC50 [1]: 10 to 100 nM
- Emax: > 100%

SMILES: COc1ccc(C(=O)N2C=C(C(=O)OC(C)C)c3[nH]c4ccccc4c3C(C)(C)C2)cc1 [Example 89, 1-methylethyl 1,1-dimethyl-3-{[4-(methyloxy)phenyl)carbonyl}-1,2,3,6-tetrahydroazepino[4,5-b]indole-5-carboxylate]
- EC50 [1]: 1 to 10 nM
- Emax: > 100%

SMILES: CC(C)OC(=O)C1=CN(C(=O)c2cccc3c2OC(F)(F)O3)CC(C)(C)c2c1[nH]c1ccccc21 [Example 91, 1-methylethyl 3-[(2,2-difluoro-1,3-benzodioxol-4-yl)carbonyl]-1,1-dimethyl-1,2,3,6-tetrahydroazepino[4,5-b]indole-5-carboxylate]
- EC50 [1]: 10 to 100 nM
- Emax: > 100%

SMILES: CC(C)OC(=O)C1=CN(C(=O)c2ccc3c(c2)OC(F)(F)O3)CC(C)(C)c2c1[nH]c1ccccc21 [Example 92, 1-methylethyl 3-[(2,2-difluoro-1,3-benzodioxol-5-yl)carbonyl]-1,1-dimethyl-1,2,3,6-tetrahydroazepino[4,5-b]indole-5-carboxylate]
- EC50 [1]: 100 to 1000 nM
- Emax: > 100%

SMILES: CC(C)OC(=O)C1=CN(C(=O)c2ccc(C3CCNCC3)cc2)CC(C)(C)c2c1[nH]c1ccccc21 [Example 94, 1-methylethyl 1,1-dimethyl-3-[(4-piperidin-4-ylphenyl)carbonyl]-1,2,3,6-tetrahydroazepino[4,5-b]indole-5-carboxylate]
- EC50 [1]: > 10000 nM

SMILES: CC(C)OC(=O)C1=CN(C(=O)c2cccc(C3CCNCC3)c2)CC(C)(C)c2c1[nH]c1ccccc21 [Example 95, 1-methylethyl 1,1-dimethyl-3-[(3-piperidin-4-ylphenyl)carbonyl]-1,2,3,6-tetrahydroazepino[4,5-b]indole-5-carboxylate]
- EC50 [1]: > 10000 nM

SMILES: CCN(CC)CCNC(=O)Oc1ccc2c3c([nH]c2c1)C(C(=O)OC(C)C)=CN(C(=O)c1ccc(F)c(F)c1)CC3(C)C [Example 97, 1-methylethyl 8-[({[2-(diethylamino)ethyl]amino}carbonyl)oxy]-3-[(3,4-difluorophenyl)carbonyl]-1,1-dimethyl-1,2,3,6-tetrahydroazepino[4,5-b]indole-5-carboxylate]
- EC50: 10 to 100 nM
- Emax: > 100%

SMILES: CC(C)OC(=O)C1=CN(C(=O)c2ccc(F)c(F)c2)CC(C)(C)c2c1[nH]c1cc(OCCN(C)C)ccc21 [Example 98, 1-methylethyl 3-[(3,4-difluorophenyl)carbonyl]-8-{[2-(dimethylamino)ethyl]oxy}-1,1-dimethyl-1,2,3,6-tetrahydroazepino[4,5-b]indole-5-carboxylate]
- EC50 [1]: 100 to 1000 nM
- Emax: < 40%

SMILES: CC(C)OC(=O)C1=CN(C(=O)c2ccc(F)c(F)c2)CC(C)(C)c2c1[nH]c1cc(OCCCN(C)C)ccc21 [Example 99, 1-methylethyl 3-[(3,4-difluorophenyl)carbonyl]-8-{[3-(dimethylamino)propyl]oxy}-1,1-dimethyl-1,2,3,6-tetrahydroazepino[4,5-b]indole-5-carboxylate]
- EC50 [1]: 100 to 1000 nM
- Emax: 40 to 60%

SMILES: COc1ccc(C(=O)N2C=C(C(=O)OC(C)C)c3[nH]c4ccccc4c3C(C)(C)C2)cc1OC [Example 100, 1-methylethyl 3-{[3,4-bis(methyloxy)phenyl]car-bonyl}-1,1-dimethyl-1,2,3,6-tetrahydroazepino[4,5-b]indole-5-carboxylate]
- EC50 [1]: 10 to 100 nM
- Emax: > 100%

SMILES: CC1(C)CN(C(=O)c2ccc(F)c(F)c2)C=C(C(=O)NCCC(=O)O)c2[nH]c3ccccc3c21 [Example 101, N-({3-[(3,4-difluorophenyl)carbonyl]-1,1-dimethyl-1,2,3,6-tetrahydroazepino[4,5-b]indol-5-yl}carbonyl)-beta-alanine]
- EC50 [1]: > 10000 nM

SMILES: CNC(=O)Oc1ccc2c3c([nH]c2c1)C(C(=O)OC(C)C)=CN(C(=O)c1ccc(F)c(F)c1)CC3(C)C [Example 102, 1-methylethyl 3-[(3,4-difluorophenyl)carbonyl]-1,1-dimethyl-8-{[(methylamino)carbonyl]oxy}-1,2,3,6-tetrahydroazepino[4,5-b]indole-5-carboxylate]
- EC50: 10 to 100 nM
- Emax: < 40%

SMILES: CCN(CC)CCOc1ccc2c3c([nH]c2c1)C(C(=O)OC(C)C)=CN(C(=O)c1ccc(F)c(F)c1)CC3(C)C [Example 103, 1-methylethyl 8-{[2-(diethylamino)ethyl]oxy}-3-[(3,4-difluorophenyl)carbonyl]-1,1-dimethyl-1,2,3,6-tetrahydroazepino[4,5-b]indole-5-carboxylate]
- EC50 [1]: 100 to 1000 nM
- Emax: < 40%

SMILES: CCN(CC)CCCOc1ccc2c3c([nH]c2c1)C(C(=O)OC(C)C)=CN(C(=O)c1ccc(F)c(F)c1)CC3(C)C [Example 104]
- EC50 [1]: 100 to 1000 nM
- Emax: 60 to 80%

SMILES: COCCOc1ccc2c3c([nH]c2c1)C(C(=O)OC(C)C)=CN(C(=O)c1ccc(F)c(F)c1)CC3(C)C [Example 105, 1-methylethyl 3-[(3,4-difluorophenyl)carbonyl]-1,1-dimethyl-8-{[2-(methyloxy)ethyl]oxy}-1,2,3,6-tetrahydroazepino[4,5-b]indole-5-carboxylate]
- EC50 [1]: 100 to 1000 nM
- Emax: 80 to 100%

SMILES: CC(=O)C1=CN(C(=O)c2ccc(F)c(F)c2)CC(C)(C)c2c1[nH]c1ccccc21 [Example 106, 1-{3-[(3,4-difluorophenyl)carbonyl]-1,1-dimethyl-1,2,3,6-tetrahydroazepino[4,5-b]indol-5-yl}ethanone]
- EC50 [1]: 100 to 1000 nM
- Emax: > 100%
